Measured values: paper PMC3772632 (Nature structural & molecular biology, 2013)

Key:
[1] = test system: dnak deletion strain BB205; assay: Growth tests in dnak deletion strain BB205 at 37°C; format: cell-based, E. coli; conditions: serial dilutions spotted on LB plates, 20 μM IPTG, one overnight
DnaK ATPase = conditions: ref [16],[28]; cited from earlier work
[2] = test system: DnaK Trp102 (NBD-SBD allosteric coupling); conditions: cited from earlier work
SBD = conditions: cited from earlier work

Compound: D100L: DnaK mutated individually at Asp100
- in vivo DnaK function / activity in growth tests [1]: moderate growth phenotype

Compound: G468P
- in vivo DnaK function / activity in growth tests [1]: compromised in vivo DnaK function modestly

Compound: T199A: well-characterized mutation that abolishes ATPase activity but maintains allosteric coupling
- ATPase activity of mutant (DnaK ATPase): abolishes ATPase activity
- Allosteric coupling of mutant ([2]; ref [16],[28]): maintains allosteric coupling

Compound: G461P
- in vivo DnaK function / activity in growth tests [1]: compromised in vivo DnaK function modestly

Compound: Nc1ncnc2c1ncn2[C@@H]1O[C@H](COP(=O)(O)OP(=O)(O)OP(=O)(O)O)[C@@H](O)[C@H]1O [ATP]
- ATP-induced change of tryptophan fluorescence ([2]; full-length DnaK, relative to apo and ADP-bound forms, ref [16]): blue-shift and fluorescence quenching
- Binding and release rates of substrates upon ATP binding (SBD; Hsp70 (mainly DnaK)): greatly accelerated, more for release than binding
- Reduction of affinity of SBD for its substrates upon ATP binding (SBD; ref [19],[20]): two to three
